Experimental data published in ChEMBL document CHEMBL4715916, “Synthesis and biological evaluation of a ring analogs of the selective CB2 inverse agonist SMM-189” (Bioorg Med Chem, 2021).
The source made the active and inactive calls. The calls are words filed in the database; no cut-off is given here.

molecular target: T1, Cannabinoid receptor 1 (Homo sapiens, UniProt P21554); assay: Displacement of [3H]-CP55940 from human recombinant cannabinoid CB1 receptor expressed in HEK cell membranes incubated for 1.5 hrs by liquid scintillation counting method; design: species or system Cell membrane; details: not given
T1 sequence (P21554 whole entry): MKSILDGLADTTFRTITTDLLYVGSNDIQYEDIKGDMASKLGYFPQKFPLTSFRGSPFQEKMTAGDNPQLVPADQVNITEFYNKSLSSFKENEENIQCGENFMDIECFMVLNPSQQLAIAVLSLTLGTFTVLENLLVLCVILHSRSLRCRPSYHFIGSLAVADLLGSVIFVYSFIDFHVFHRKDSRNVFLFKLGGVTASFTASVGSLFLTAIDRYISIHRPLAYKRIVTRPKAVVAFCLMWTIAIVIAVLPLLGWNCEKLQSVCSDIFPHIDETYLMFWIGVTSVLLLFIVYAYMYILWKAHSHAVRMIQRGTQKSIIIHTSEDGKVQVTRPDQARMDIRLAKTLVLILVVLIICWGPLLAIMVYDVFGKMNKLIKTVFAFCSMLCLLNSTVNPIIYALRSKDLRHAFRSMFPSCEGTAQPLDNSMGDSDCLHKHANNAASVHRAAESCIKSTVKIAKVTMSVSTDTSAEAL

Structure (SMILES)	Ki [nM]
O=C(c1cc(O)c(-c2ccncc2)c(O)c1)c1cccs1	> 10000
N#Cc1cc(-c2c(O)cc(C(=O)c3ccccc3)cc2O)ccc1F	> 10000
O=C(c1cc(O)c(-c2cc(Cl)ccc2Cl)c(O)c1)c1cccs1	> 10000
O=C(c1ccccc1)c1cc(O)c(-c2cccc(C(F)(F)F)c2)c(O)c1	> 10000
O=C(c1ccccc1)c1cc(O)c(-c2cc(Cl)ccc2Cl)c(O)c1	> 10000
Cc1cccc(-c2c(O)cc(C(=O)c3cccs3)cc2O)c1	9530
O=C(c1ccccc1)c1cc(O)c(-c2ccnc(Cl)c2)c(O)c1	> 10000
O=C(c1ccccc1)c1cc(O)c(-c2ccoc2)c(O)c1	> 10000
O=C(c1ccccc1)c1cc(O)c(-c2ccc3c(c2)OCO3)c(O)c1	> 10000

molecular target: T2, Cannabinoid receptor 2 (Homo sapiens, UniProt P34972); assay: Inverse agonist activity at human recombinant cannabinoid CB2 receptor expressed in HEK cells transfected with CNG assessed as increase in cAMP level measured up to 1 hr by ACTOne membrane potential dye based assay; assay type: functional, cell-based; details: not given
T2 sequence (P34972 whole entry): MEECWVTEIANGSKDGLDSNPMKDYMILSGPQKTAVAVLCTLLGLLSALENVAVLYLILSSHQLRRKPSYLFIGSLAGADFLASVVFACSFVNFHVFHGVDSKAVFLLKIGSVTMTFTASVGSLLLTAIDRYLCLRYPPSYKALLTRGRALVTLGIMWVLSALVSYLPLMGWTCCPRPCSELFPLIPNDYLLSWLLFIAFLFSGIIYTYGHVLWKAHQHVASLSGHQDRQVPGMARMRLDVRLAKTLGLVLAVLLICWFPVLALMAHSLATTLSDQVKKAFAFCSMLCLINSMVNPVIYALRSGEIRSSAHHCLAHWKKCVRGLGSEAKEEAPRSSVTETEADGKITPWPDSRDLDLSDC

Structure (SMILES)	EC50 [nM]
N#Cc1cc(-c2c(O)cc(C(=O)c3ccccc3)cc2O)ccc1F	2820
O=C(c1cc(O)c(-c2cc(Cl)ccc2Cl)c(O)c1)c1cccs1	141
O=C(c1ccccc1)c1cc(O)c(-c2cccc(C(F)(F)F)c2)c(O)c1	240
O=C(c1ccccc1)c1cc(O)c(-c2cc(Cl)ccc2Cl)c(O)c1	363
Cc1cccc(-c2c(O)cc(C(=O)c3cccs3)cc2O)c1	200
O=C(c1ccccc1)c1cc(O)c(-c2ccoc2)c(O)c1	2750

same assay, conditions: time hrs <=1

Structure (SMILES)	pEC50	Emax
O=C(c1cc(O)c(-c2ccncc2)c(O)c1)c1cccs1	inactive	
O=C(c1ccccc1)c1cc(O)c(-c2ccnc(Cl)c2)c(O)c1	inactive	
O=C(c1ccccc1)c1cc(O)c(-c2ccc3c(c2)OCO3)c(O)c1		inactive

molecular target: T1, Cannabinoid receptor 1; assay: Inverse agonist activity at cannabinoid CB1 receptor in human U2OS cells assessed as induction of beta-arrestin recruitment using CCF4/AM as substrate preincubated for 5 hrs followed by substrate addition and measured after 2 hrs by Tango assay; assay type: cell-based; details: time 7.0 hrs

Structure (SMILES)	pEC50
O=C(c1ccccc1)c1cc(O)c(-c2cc(Cl)cc(Cl)c2)c(O)c1	inactive
Cc1ccc(Cn2nc(C(=O)N[C@@H]3C(C)(C)[C@@H]4CC[C@@]3(C)C4)cc2-c2ccc(Cl)c(C)c2)cc1	inactive
N#Cc1cc(-c2c(O)cc(C(=O)c3ccccc3)cc2O)ccc1F	inactive
O=C(c1cc(O)c(-c2cc(Cl)ccc2Cl)c(O)c1)c1cccs1	inactive
O=C(c1ccccc1)c1cc(O)c(-c2cccc(C(F)(F)F)c2)c(O)c1	inactive
O=C(c1ccccc1)c1cc(O)c(-c2cc(Cl)ccc2Cl)c(O)c1	inactive
Cc1cccc(-c2c(O)cc(C(=O)c3cccs3)cc2O)c1	inactive

organism: Homo sapiens; assay: Selectivity ratio of Ki for displacement of [3H]-CP55940 from human recombinant cannabinoid CB1 receptor expressed in HEK cell membranes to displacement of [3H]-CP55940 from human recombinant cannabinoid CB2 receptor expressed in HEK cell membranes; details: not given

Structure (SMILES)	Ratio Ki
O=C(c1ccccc1)c1cc(O)c(-c2cc(Cl)cc(Cl)c2)c(O)c1	39.4
N#Cc1cc(-c2c(O)cc(C(=O)c3ccccc3)cc2O)ccc1F	> 5.44
O=C(c1cc(O)c(-c2cc(Cl)ccc2Cl)c(O)c1)c1cccs1	> 22.4
O=C(c1ccccc1)c1cc(O)c(-c2cccc(C(F)(F)F)c2)c(O)c1	> 49
O=C(c1ccccc1)c1cc(O)c(-c2cc(Cl)ccc2Cl)c(O)c1	> 42.9
Cc1cccc(-c2c(O)cc(C(=O)c3cccs3)cc2O)c1	9.77
O=C(c1ccccc1)c1cc(O)c(-c2ccoc2)c(O)c1	> 7.53

molecular target: T2, Cannabinoid receptor 2; assay: Displacement of [3H]-CP55940 from human recombinant cannabinoid CB2 receptor expressed in HEK cell membranes incubated for 1.5 hrs by liquid scintillation counting method; design: species or system Cell membrane; details: not given

Structure (SMILES)	Ki [nM]
O=C(c1cc(O)c(-c2ccncc2)c(O)c1)c1cccs1	> 10000
N#Cc1cc(-c2c(O)cc(C(=O)c3ccccc3)cc2O)ccc1F	1840
O=C(c1cc(O)c(-c2cc(Cl)ccc2Cl)c(O)c1)c1cccs1	447
O=C(c1ccccc1)c1cc(O)c(-c2cccc(C(F)(F)F)c2)c(O)c1	204
O=C(c1ccccc1)c1cc(O)c(-c2cc(Cl)ccc2Cl)c(O)c1	233
Cc1cccc(-c2c(O)cc(C(=O)c3cccs3)cc2O)c1	975
O=C(c1ccccc1)c1cc(O)c(-c2ccnc(Cl)c2)c(O)c1	> 10000
O=C(c1ccccc1)c1cc(O)c(-c2ccoc2)c(O)c1	1330
O=C(c1ccccc1)c1cc(O)c(-c2ccc3c(c2)OCO3)c(O)c1	> 10000

molecular target: T2, Cannabinoid receptor 2; assay: Inverse agonist activity at cannabinoid CB2 receptor in human U2OS cells assessed as induction of beta-arrestin recruitment using CCF4/AM as substrate preincubated for 5 hrs followed by substrate addition and measured after 2 hrs by Tango assay; assay type: cell-based; details: not given

Structure (SMILES)	EC50 [nM]
O=C(c1cc(O)c(-c2cc(Cl)ccc2Cl)c(O)c1)c1cccs1	> 10000
O=C(c1ccccc1)c1cc(O)c(-c2cccc(C(F)(F)F)c2)c(O)c1	3470
O=C(c1ccccc1)c1cc(O)c(-c2cc(Cl)ccc2Cl)c(O)c1	6030
Cc1cccc(-c2c(O)cc(C(=O)c3cccs3)cc2O)c1	6170

same assay, conditions: time 7.0 hrs

Structure (SMILES)	pEC50
N#Cc1cc(-c2c(O)cc(C(=O)c3ccccc3)cc2O)ccc1F	inactive

molecular target: T1, Cannabinoid receptor 1; assay: Inverse agonist activity at human recombinant cannabinoid CB1 receptor expressed in HEK cells transfected with CNG assessed as increase in cAMP level measured up to 1 hr by ACTOne membrane potential dye based assay relative to control; assay type: functional, cell-based; details: time hrs <=1

Structure (SMILES)	Emax
O=C(c1ccccc1)c1cc(O)c(-c2cc(Cl)cc(Cl)c2)c(O)c1	inactive
O=C(c1cc(O)c(-c2ccncc2)c(O)c1)c1cccs1	inactive
N#Cc1cc(-c2c(O)cc(C(=O)c3ccccc3)cc2O)ccc1F	inactive
O=C(c1cc(O)c(-c2cc(Cl)ccc2Cl)c(O)c1)c1cccs1	inactive
O=C(c1ccccc1)c1cc(O)c(-c2cccc(C(F)(F)F)c2)c(O)c1	inactive
O=C(c1ccccc1)c1cc(O)c(-c2cc(Cl)ccc2Cl)c(O)c1	inactive
Cc1cccc(-c2c(O)cc(C(=O)c3cccs3)cc2O)c1	inactive
O=C(c1ccccc1)c1cc(O)c(-c2ccnc(Cl)c2)c(O)c1	inactive
O=C(c1ccccc1)c1cc(O)c(-c2ccoc2)c(O)c1	inactive
O=C(c1ccccc1)c1cc(O)c(-c2ccc3c(c2)OCO3)c(O)c1	inactive

molecular target: T1, Cannabinoid receptor 1; assay: Inverse agonist activity at cannabinoid CB1 receptor in human U2OS cells assessed as emission ratio using CCF4/AM as substrate preincubated for 5 hrs followed by substrate addition and measured after 2 hrs by Tango assay; assay type: cell-based; details: time 7.0 hrs

Structure (SMILES)	Ratio
O=C(c1ccccc1)c1cc(O)c(-c2cc(Cl)cc(Cl)c2)c(O)c1	inactive
N#Cc1cc(-c2c(O)cc(C(=O)c3ccccc3)cc2O)ccc1F	inactive
O=C(c1cc(O)c(-c2cc(Cl)ccc2Cl)c(O)c1)c1cccs1	inactive
O=C(c1ccccc1)c1cc(O)c(-c2cccc(C(F)(F)F)c2)c(O)c1	inactive
O=C(c1ccccc1)c1cc(O)c(-c2cc(Cl)ccc2Cl)c(O)c1	inactive
Cc1cccc(-c2c(O)cc(C(=O)c3cccs3)cc2O)c1	inactive

molecular target: T1, Cannabinoid receptor 1; assay: Inverse agonist activity at human recombinant cannabinoid CB1 receptor expressed in HEK cells transfected with CNG assessed as increase in cAMP level measured up to 1 hr by ACTOne membrane potential dye based assay; assay type: functional, cell-based; details: time hrs <=1

Structure (SMILES)	pEC50
O=C(c1ccccc1)c1cc(O)c(-c2cc(Cl)cc(Cl)c2)c(O)c1	inactive
O=C(c1cc(O)c(-c2ccncc2)c(O)c1)c1cccs1	inactive
N#Cc1cc(-c2c(O)cc(C(=O)c3ccccc3)cc2O)ccc1F	inactive
O=C(c1cc(O)c(-c2cc(Cl)ccc2Cl)c(O)c1)c1cccs1	inactive
O=C(c1ccccc1)c1cc(O)c(-c2cccc(C(F)(F)F)c2)c(O)c1	inactive
O=C(c1ccccc1)c1cc(O)c(-c2cc(Cl)ccc2Cl)c(O)c1	inactive
Cc1cccc(-c2c(O)cc(C(=O)c3cccs3)cc2O)c1	inactive
O=C(c1ccccc1)c1cc(O)c(-c2ccnc(Cl)c2)c(O)c1	inactive
O=C(c1ccccc1)c1cc(O)c(-c2ccoc2)c(O)c1	inactive
O=C(c1ccccc1)c1cc(O)c(-c2ccc3c(c2)OCO3)c(O)c1	inactive

molecular target: T2, Cannabinoid receptor 2; assay: Inverse agonist activity at cannabinoid CB2 receptor in human U2OS cells assessed as emission ratio using CCF4/AM as substrate preincubated for 5 hrs followed by substrate addition and measured after 2 hrs by Tango assay; assay type: cell-based; details: filed as inverse agonist, time 7.0 hrs; further: test concentration or dose not given here

Structure (SMILES)	Ratio
O=C(c1ccccc1)c1cc(O)c(-c2cc(Cl)cc(Cl)c2)c(O)c1	0.66
O=C(c1cc(O)c(-c2cc(Cl)ccc2Cl)c(O)c1)c1cccs1	1.46
O=C(c1ccccc1)c1cc(O)c(-c2cccc(C(F)(F)F)c2)c(O)c1	1.41
O=C(c1ccccc1)c1cc(O)c(-c2cc(Cl)ccc2Cl)c(O)c1	1.03
Cc1cccc(-c2c(O)cc(C(=O)c3cccs3)cc2O)c1	2.68

same assay, conditions: time 7.0 hrs

Structure (SMILES)	Ratio
N#Cc1cc(-c2c(O)cc(C(=O)c3ccccc3)cc2O)ccc1F	inactive

molecular target: T2, Cannabinoid receptor 2; assay: Inverse agonist activity at human recombinant cannabinoid CB2 receptor expressed in HEK cells transfected with CNG assessed as increase in cAMP level measured up to 1 hr by ACTOne membrane potential dye based assay relative to control; assay type: functional, cell-based; details: filed as inverse agonist, time hrs <=1

Structure (SMILES)	Emax [%]
O=C(c1ccccc1)c1cc(O)c(-c2cc(Cl)cc(Cl)c2)c(O)c1	54.8
N#Cc1cc(-c2c(O)cc(C(=O)c3ccccc3)cc2O)ccc1F	52.3
O=C(c1cc(O)c(-c2cc(Cl)ccc2Cl)c(O)c1)c1cccs1	61
O=C(c1ccccc1)c1cc(O)c(-c2cccc(C(F)(F)F)c2)c(O)c1	66
O=C(c1ccccc1)c1cc(O)c(-c2cc(Cl)ccc2Cl)c(O)c1	66.5
Cc1cccc(-c2c(O)cc(C(=O)c3cccs3)cc2O)c1	51.7

same assay, conditions: time hrs <=1

Structure (SMILES)	Emax
O=C(c1cc(O)c(-c2ccncc2)c(O)c1)c1cccs1	inactive
O=C(c1ccccc1)c1cc(O)c(-c2ccnc(Cl)c2)c(O)c1	inactive
O=C(c1ccccc1)c1cc(O)c(-c2ccoc2)c(O)c1	-18.5%
O=C(c1ccccc1)c1cc(O)c(-c2ccc3c(c2)OCO3)c(O)c1	inactive
